Laboratory results taken from US11571460B2 (priority 2017, dated 2023).

Tests used:
[1] = Blood cell profile test (hematological profiling); type: in vivo, mice
Description: The blood was collected from the retro-orbital plexus of mice under anesthesia. The blood was immediately mixed with EDTA and analyzed by a Hemavet 950 auto-sampler (Drew scientific, Waterbury, Conn., USA) according to manufacturer's instructions. The parameters of leukocytes, erythrocytes, and platelets were measured and expressed as a percentage.
The blood was collected via the retro-orbital plexus during anesthesia.

[2] = test system: tumor-associated macrophages (TAM); experiment: Flow cytometry of tumor-associated macrophages in tumor tissue; type: in vivo, mice
Description: A tissue was dissociated by cutting the tumor into thin pieces and gently stirring in DNase I (1 U/ml; Roche, Indianapolis, trypsin-EDTA (Gibco)) under DMEM (Welgene) preheated at 37° C. for 1 hour. The tissue was mechanically dissociated in a 100 μm nylon mesh strainer, then single cells passed through a 40 μm nylon mesh strainer, and the spleen was mechanically dissociated with a 40 μm nylon mesh strainer. RBC was dissolved for 5 minutes in a 1× pharmlyse buffer.
The cells were stained with fluorescent tag antibodies. All data were detected by a FACS Calibur flow cytometer and analyzed with FlowJo software. CD45-FITC, CD3-FITC, CD4-PE, CD4-FITC, CD8-APC, CD11b-APC, CD11 c-PE, CD25 (CD12-FITC)-PE, CD25-APC, B220-FITC, CD19-PE, CD86-APC, and Foxp3-Alexa Fluor647 were purchased from BD bioscience and F4/80-PE and CD206-APC were purchased from Biolegend (San Diego, Calif., USA).
Lewis lung carcinoma cells were mixed with a Matrigel matrix (Coming, N.Y., USA) to generate a tumor model. Male C57BL/6 wild-type mice (6 to 8 weeks old) were inoculated subcutaneously in the right flank with 5×10^4 cells per mouse. […] Before 3 days of tumor injection, macrophage deficiency was performed by clodronate liposomes (first dose of 200 μl per mouse, maintenance dose of 100 μl intraperitoneally every 4 days). Clodronate liposome and control liposome were purchased from FormuMax (Sunnyvale, Calif., USA). A tumor size was monitored every 2 to 3 days by measuring two opposite diameters (volume=length×width×width/2). If the tumor size exceeded 5% of the body weight, the mice were sacrificed for a next experiment set. Thereafter, the tumor and the spleen were surgically removed.

[3] = test system: bone marrow-derived macrophages (BMDM); experiment: ELISA of cytokines in BMDM culture supernatant; type: cell-based, mouse
Description: (§1) Cells were harvested as previously described to generate mouse bone marrow-derived macrophages. The cells were cultured for 7 days in an RPMI-1640 complete culture medium containing 10 ng/ml of mouse recombinant M-CSF (R & D systems, Minneapolis, Minn., USA). After the cells were differentiated into M0 macrophages, the cells were smeared in a 6-well plate (1×10^6 cells/well) and cultured overnight under 100 ng/ml LPS or 20 ng/ml mouse recombinant IL-4 (R & D system) to induce differentiation of M1 or M2 phenotype macrophages.
The secretion of cytokine from the culture medium was analyzed using an ELISA kit according to a procedure recommended by a provider. Mouse IL-10 and
TNF-α were purchased from BD Biosciences, and TGF-β was purchased from R & D systems. Results were expressed as pg of normalized cytokine per mg of total protein.

[4] = test system: splenocytes; experiment: Melittin binding study with rhodamine-bound melittin in splenocytes; type: cell-based, mice
Description: After 1 hour, cells were harvested and the non-binding peptides were washed twice.
Next, the cells were cultured with rhodamine-bound peptides and stained with CD11b-APC antibodies as described above.
Annexin-V was added to a sample before data collection to distinguish dead cells. […] tumor-associated macrophage was stained with CD86-PEcy7 (e-bioscience) or CD206-PercpCy5.5 (Biolegend). The cells were detected in FACS Calibur or FACS CantoII.

[5] = Body weight of tumor-bearing mice; type: in vivo
Description: The weights of mice were measured every 2 to 3 days until 0 to 18 days.

[6] = test system: bone marrow-derived macrophages (BMDM); experiment: Western blot analysis of BMDM; type: cell-based, mouse
Description: as §1
Total proteins were extracted using a RIPA buffer from melittin or PBS treated-bone marrow-derived macrophages and quantified by Bio-Rad analysis. 20 μg of protein was isolated on an 8% SDS Tris-glycine gel and transferred to a nitro cellulose cell membrane (Invitrogen). The following antibodies and dilution factors were used: VEGF goat polyclonal antibody (sc-1836, 1:1000, Santa Cruz), actin goat polyclonal antibody (sc-1616, 1:1000, Santa Cruz), […] CD206 (MCA2235GA 1:200, AbD serotec), anti-goat IgG conjugated to HRP (SA007, 1:1000, GenDEPOT), and anti-rat IgG bound to HRP (405405, 1:1000, Biolegend). Protein bands were visualized using an ECL solution (GE healthcare) and measured with Image J software. The strength of the protein has been normalized above that of actin.

Structure (SMILES): CC[C@H](C)[C@H](NC(=O)CN)C(=O)NCC(=O)N[C@@H](C)C(=O)N[C@H](C(=O)N[C@@H](CC(C)C)C(=O)N[C@@H](CCCCN)C(=O)N[C@H](C(=O)N[C@@H](CC(C)C)C(=O)N[C@H](C(=O)N[C@H](C(=O)NCC(=O)N[C@@H](CC(C)C)C(=O)N1CCC[C@H]1C(=O)N[C@@H](C)C(=O)N[C@@H](CC(C)C)C(=O)N[C@H](C(=O)N[C@@H](CO)C(=O)N[C@@H](Cc1c[nH]c2ccccc12)C(=O)N[C@H](C(=O)N[C@@H](CCCCN)C(=O)N[C@@H](CCCNC(=N)N)C(=O)N[C@@H](CCCCN)C(=O)N[C@@H](CCCNC(=N)N)C(=O)N[C@@H](CCC(N)=O)C(=O)N[C@@H](CCC(N)=O)C(N)=O)[C@@H](C)CC)[C@@H](C)CC)[C@@H](C)O)[C@@H](C)O)C(C)C)C(C)C [melittin]
- hematological factors (WBC, RBC, Hgb, HCT, MCV and MCH) ([1]; 0.5 mg/kg or 1 mg/kg melittin): did not result in significant changes
- acute cytotoxic damage ([1]; judged from N/L ratio): does not cause acute cytotoxic damage
- percentage of CD11b+F4/80+ macrophages in CD45+ tumor-infiltrating leukocytes ([2]; melittin-treated tumor-bearing mice): 38.70±0.79%
- number of F4/80+CD86+ in CD45+ cells ([2]; tumor, M1-type): not increased
- percentage of F4/80+CD206+ in CD45+ cells ([2]; tumor, M2-type): 9.53±0.63%
- protein level of TNF-α ([3]; LPS stimulation): did not affect
- protein expression level of IL-10 ([3]; M2-type BMDM (IL-4)): not changed
- protein expression level of TGF-β ([3]; M2-type BMDM (IL-4)): not changed
- melittin binding in CD11b+ cells ([4]; 0.5 μg/ml rhodamine-bound melittin, 1 hour): approximately 16%
- percentage of melittin+CD86+ population in F4/80+ cells ([4]; M1 type): 3.27±0.39%
- percentage of melittin and CD206 double positive population in F4/80+ cells ([4]; M2 type): 9.15±1.05%
- melittin binding to DC (CD11c) ([4]; rhodamine-bound melittin): 24.44±0.56
- melittin binding to macrophages (F4/80) in annexinli-CD11b+ melittin+ cells ([4]; rhodamine-bound melittin): 67.70±2.96
- melittin binding to neutrophils (Gr-1) ([4]; rhodamine-bound melittin): 36.36±0.95
- weight of mice ([5]; day 0): 22.84±0.36
- weight of mice ([5]; day 18): 24.72±0.45
- weight loss ([5]; measured every 2 to 3 days, 0 to 18 days): no weight loss
- expression level of CD206 protein [6]: reduced
- expression level of VEGF protein [6]: reduced
